Tests used:
Experiment in all cases: relative viability (nuclei count vs DMSO), 5 days (fraction); higher = more cells survive
[1] = compound: C=CC(=O)N1CCC[C@@H](n2nc(-c3ccc(Oc4ccccc4)cc3)c3c(N)ncnc32)C1 [Ibrutinib] + O=C(c1cc(Cc2n[nH]c(=O)c3ccccc23)ccc1F)N1CCN(C(=O)C2CC2)CC1 [Olaparib] (partner 8 µM)
Summary of the method: (§1)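 Dosing by pin tool came one day after lung cancer cell lines were seeded in 1536-well plates, using either one drug or a fixed anchor-drug dose plus five library-drug doses (not always all listed) in √10 steps. After 5 days, nuclei were counted on 4× images. Relative viability is treated-well nuclei count divided by vehicle-well nuclei count, and values are medians of duplicate plates.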

[2] = compound: C=CC(=O)N1CCC[C@@H](n2nc(-c3ccc(Oc4ccccc4)cc3)c3c(N)ncnc32)C1 [Ibrutinib] + Cc1cc(Nc2cc(N3CCN(C)CC3)nc(Sc3ccc(NC(=O)C4CC4)cc3)n2)n[nH]1 [Tozasertib] (partner 0.1 µM)
Summary of the method: as §1

[3] = compound: C=CC(=O)N1CCC[C@@H](n2nc(-c3ccc(Oc4ccccc4)cc3)c3c(N)ncnc32)C1 [Ibrutinib]
Summary of the method: (§2)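 On vehicle-anchored 1536-well plates, lung cancer cell lines held overnight at 37 °C were pinned with five library-drug doses (not always all listed) spaced by √10. With no medium change over 5 days, they were then fixed, permeabilised and Hoechst-stained in one step and imaged at 4×. MetaXpress counted nuclei, and viability is the median across plates of treated-well over vehicle-well nuclei. Acceptance needed control CV below 25% and at least one doubling.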

[4] = compound: C=CCc1cccc(/C=N/NC(=O)CN2CCN(Cc3ccccc3)CC2)c1O [PAC-1]
Summary of the method: as §2

Cell Line | relative viability ([1]; first compound 0.005 µM) | relative viability ([1]; first compound 0.01581 µM) | relative viability ([1]; first compound 0.05 µM) | relative viability ([1]; first compound 0.1581 µM) | relative viability ([1]; first compound 0.5 µM) | relative viability ([2]; first compound 0.005 µM) | relative viability ([2]; first compound 0.01581 µM) | relative viability ([2]; first compound 0.05 µM) | relative viability ([2]; first compound 0.1581 µM) | relative viability ([2]; first compound 0.5 µM) | relative viability ([3]; 0.005 µM) | relative viability ([3]; 0.01581 µM) | relative viability ([3]; 0.05 µM) | relative viability ([3]; 0.1581 µM) | relative viability ([3]; 0.5 µM) | relative viability ([4]; 0.02 µM) | relative viability ([4]; 0.06325 µM) | relative viability ([4]; 0.2 µM) | relative viability ([4]; 2 µM)
201T | 0.844 | 0.848 | 0.841 | 0.816 | 0.793 | 0.984 | 0.916 | 0.971 | 0.959 | 0.849 | 0.979 | 0.992 | 0.964 | 0.876 | 0.955 | 0.959 | 1.02 | 1.01 | 0.981
A549 | – | 0.35 | 0.279 | 0.326 | 0.21 | – | – | – | – | – | 0.884 | 0.891 | 1 | 0.988 | 0.935 | 0.994 | 0.962 | 0.943 | 0.96
A-427 | 0.71 | 0.722 | 0.723 | – | 0.766 | 0.22 | 0.185 | 0.281 | 0.23 | 0.212 | 0.9 | 0.969 | 0.953 | 0.951 | 0.98 | 1.01 | 1.04 | 0.976 | 0.97
ABC-1 | 0.85 | 0.774 | – | – | 0.844 | 0.151 | 0.149 | 0.159 | 0.198 | 0.187 | 0.907 | 0.761 | 0.887 | 0.744 | 0.94 | 0.992 | 0.952 | 0.975 | 0.887
BEN | 0.984 | 1.11 | 1.09 | 1.11 | 1.2 | – | 0.459 | 0.471 | 0.561 | 0.536 | – | 0.925 | 0.843 | 0.718 | 0.997 | 0.987 | 0.901 | 0.912 | 1.04
CAL-12T | 0.665 | 0.677 | 0.658 | 0.818 | 0.506 | 0.324 | 0.309 | 0.268 | 0.365 | 0.151 | 0.824 | 0.907 | 0.902 | 0.932 | 0.678 | 1.02 | 1.11 | 0.984 | 0.947
COR-L23 | 0.398 | 0.31 | 0.363 | 0.385 | 0.327 | 0.209 | 0.214 | 0.247 | 0.227 | 0.181 | 1.09 | 0.967 | 1.03 | 1.03 | 1.18 | 1.09 | 1 | 0.9 | 1
COR-L 105 | 0.663 | 0.683 | 0.717 | 0.755 | 0.46 | 0.35 | 0.337 | 0.339 | 0.373 | 0.303 | 0.806 | 0.878 | 0.676 | 0.814 | 0.393 | 0.919 | 0.901 | 0.903 | 0.985
Calu-6 | 0.673 | 0.582 | 0.576 | 0.599 | 0.589 | – | – | – | – | – | 1.1 | 0.965 | 1 | 1.01 | 1.03 | 0.98 | 1.01 | 0.964 | 1.01
